Data published in publication PMC10733463, “Berberine-microbiota interplay: orchestrating gut health through modulation of the gut microbiota and metabolic transformation into bioactive metabolites” (Frontiers in Pharmacology, 2023).

What was measured:
[1] = UPLC-MS/MS quantification of berberine and metabolites in plasma; type: in vivo, Ross 308 broiler chickens; conditions: chickens fed 0.1, 0.5 or 1 g berberine/kg feed for 21 days; LOQ 0.1 ng/mL
From the text: (§1) The study was undertaken following the guidelines of the ethics committee of the Faculty of Veterinary Medicine and Bioscience Engineering, Ghent University, in accordance with the EU Directive 2010/63/EU. One-day-old Ross 308 male broilers were obtained from a local hatchery and housed in pens on wood shavings. They were allotted into 4 groups, with three replicate pens per group each housing 8 chickens. The animals were not vaccinated. Water and commercial starter feed (day 1–12, FARM 1 Mash, Country’s Best, Versele Laga, Deinze, Belgium) or grower (day 13–21, FARM 2 mash, Country’s Best, Versele Laga, Deinze, Belgium) were provided ad libitum. The control group received the standard non-supplemented diets, whereas the chickens in other groups were fed the same feed supplemented with 0.1, 0.5 or 1 g berberine/kg feed throughout the whole trial period. At day 21, 4 birds per pen were weighted then euthanized by sodium pentobarbital injection for sampling. Individual jejunal, ileal, caecal and colonic contents were stored at −20°C for microbiota composition analysis (16S rRNA gene sequencing). Additionally, ileal and caecal content samples were collected and stored at −20°C for berberine and berberine-derived metabolite quantification. Duodenal tissue samples were collected and fixed in 4% phosphate buffered formaldehyde for histological analysis. Blood samples were collected in heparin tubes and centrifuged at 524 g for 10 min to recover the plasma fraction, which was further mixed with 17 mg/mL L-ascorbic acid for dihydroberberine stabilization, and stored at −20°C for berberine and berberine-derived metabolite quantification.
(§2) The column temperature was maintained at 25°C. The autosampler temperature was set at 10°C.
A 137.5 µL plasma sample containing 17 mg/mL L-ascorbic acid was used for sample extraction. The ascorbic acid solution was added to prevent oxidation of dihydroberberine to berberine during sample storage ([Feng et al., 2015]). The plasma sample was transferred to an OstroTM 96 well-plate (25 mg) (Waters). Subsequently, 50 µL Milli-Q water and 25 µL of an internal standard solution containing 100 ng/mL of both berberine-d6 and tetrahydropalmatine were added. A 640 µL volume of 1% (v/v) formic acid solution in acetonitrile (1/3 ratio) was added, followed by gentle mixing. Vacuum was applied on the Ostro™ plate for 5 min and the eluate was collected in a 2 mL square 96-well collector plate. The sample was transferred in a glass tube and evaporated at 40°C under a gentle stream of nitrogen in a Pierce (Rockford, United States) Reacti-Therm III™ Heating Module and Reacti-Vap™ III Module. The dried sample extract was reconstituted in 500 µL Milli-Q water, followed by injection of a 5 µL sample aliquot onto the UPLC-MS/MS apparatus. Quantification was based on the ratio of the analyte peak area compared to the peak area of the internal standard berberine-d6.
Calibration standards and quality control samples were prepared as follows: 137.5 µL of blank plasma stabilized with 17 mg/mL L-ascorbic acid were supplemented with 25 µL mixed working solutions of berberine and metabolites (except dihydroberberine) at different levels, 25 µL of dihydroberberine working solution, stabilized with 17 mg/mL L-ascorbic acid, at different levels and 25 µL of an internal standard solution containing 100 ng/mL of both berberine-d6 and tetrahydropalmatine. The calibration curve was in the 0.1–100 ng/mL range, including 0.1, 0.5, 1, 2.5, 5, 10, 25, […], 50 and 100 ng/mL levels.
The UPLC-MS/MS analysis method for the quantification of berberine and berberine-derived metabolites both in plasma and ileal/caecal intestinal content was validated to the guidelines of the European Medicines Agency, i.e., of the Committee for Veterinary Medicinal Products (EMEA/CVMP/VICH/463202/2009) and of the Committee for Medicinal Products for Human Use (EMEA/CHMP/EWP/192217/20), and in accordance with the EU Directive 2002/657/EC. […]

[2] = UPLC-MS/MS quantification of berberine and metabolites in ileal and caecal content; type: in vivo, Ross 308 broiler chickens; conditions: 21 days
From the text: as §1, §2
250 mg of ileal or caecal content was weighed in a 15 mL polypropylene centrifuge tube and 250 µL of ascorbic acid 170 mg/mL solution was added for stabilization of dihydroberberine, followed by brief vortexing. Subsequently, 25 µL of an internal standard solution containing 250 μg/mL of berberine-d6 and 2.5 μg/mL tetrahydropalmatine were added, followed by brief vortexing. A 2.5 mL volume of extraction solvent was then added, consisting of a 1% (v/v) formic acid solution in methanol. The sample was put on a rotary shaker set at 80 rpm for 20 min, followed by centrifugation (3,720 g, 10 min, 4°C). The supernatant was then diluted, by a factor 5 for measurement of low abundance components, and by a factor 2,000 for measurement of high abundance components. The 1/5 diluted sample extract was prepared directly in an autosampler vial as follows: 200 µL sample extract were mixed with 100 µL ascorbic acid 170 mg/mL solution and 700 µL Milli-Q water. For the 1/2,000 diluted sample extract, an intermediate 1/100 sample dilution was prepared by combining 500 µL sample extract and 49.5 mL of Milli-Q water. 50 μL was then transferred in an autosampler vial followed by the addition of 950 µL of Milli-Q water. For both dilutions, a 5 µL sample aliquot was injected onto the UPLC-MS/MS apparatus. Quantification was based on the ratio of the analyte peak area compared to the peak area of the internal standard tetrahydropalmatine for 1/5 diluted sample extracts, and on the ratio of the analyte peak area compared to the peak area of the internal standard berberine-d6 for 1/2,000 diluted sample extracts.
Calibration standards and quality control samples were prepared as follows: 250 mg of blank ileal or caecal content were supplemented with 250 µL of ascorbic acid 170 mg/mL solution, 25 µL mixed solution of berberine and metabolites (with the exception of dihydroberberine) at different levels, 25 µL of dihydroberberine solution, stabilized with 17 mg/mL ascorbic acid, at different levels and 25 µL of an internal standard solution containing 0.625 μg/mL of berberine-d6 and 2.5 μg/mL tetrahydropalmatine. The calibration curve was in the 62.5–5,000 ng/g range, and included 62.5, 125, 250, 500, 1,000, 2,500, and 5,000 ng/g levels. […]

Row | SMILES | Detection in plasma [1] | Ratio caecum / ileum (concentration) ([2]; 0.1 g berberine/kg feed) | Ratio caecum / ileum (concentration) ([2]; 0.5 g berberine/kg feed) | Ratio caecum / ileum (concentration) ([2]; 1 g berberine/kg feed)
1 | COc1cc2c(cc1O)-c1cc3ccc(OC)c(OC)c3c[n+]1CC2 [Columbamine, columbamine] | below LOQ | 0.27 | 0.32 | 0.44
2 | COc1cc2c(cc1OS(=O)(=O)[O-])-c1cc3ccc(OC)c(OC)c3c[n+]1CC2 [columbamine-sulfate] | not detected |  |  | 
